Counter-ions that a name gives are not always drawn. Like-named read-outs stand apart in the source and are kept apart here.
Key:
[1] = set-up: method as in doi:10.1016/j.molliq.2022.120801; settings: RC vs PP; cited from earlier work
[2] = Excerpt: To this end, the phase distribution approach fully described in [17] was applied. […] It is evident that, in the presence of cyclodextrins, the distribution coefficient of the compound can be described by the following equation:(3) DappOrg/(buf+CD)=C2Org(drug)/C2buf(drug)+C2buf(drug•CD) where DappOrg/(buf+CD) is the distribution coefficient of the drug in the presence of CD, C2Org and C2buf are the drug concentrations in the organic and aqueous phases, respectively, and C2buf(drug•CD) is the concentration of the drug/cyclodextrin complex in the aqueous phase of the distribution system. As follows from Equation (3), the association constant of the complex can be derived from DappOrg/buf and DappOrg/(buf+CD) at specific CD concentrations using Equation (4). (4) DappOrg/(buf+CD)/DappOrg/buf=1+KC⋅CCD
It can be performed by plotting the following dependence:(5) log(DappOrg/buf−DappOrg/(buf+CD)/DappOrg/buf)=log(KC)+α⋅log(CCD)

[3] = for distribution coefficient lower than that of AMT•HCl: AMT•HCl values from ref 14; for distribution coefficient higher at buffer pH of 6.8 than at pH of 4.0: no CD; for Dapp hex/buf / Dapp oct/buf / logDapp hex/buf / logDapp oct/buf: 37 °C
Procedure: The apparent distribution coefficients of NTT•HCl ( DappOrg/buf ) in the 1-octanol/buffer ( Dappoct/buf ) and n-hexane/buffer ( Dapphex/buf ) systems were measured at 37 °C via the standard shake-flask method using mutually saturated organic and aqueous solvents, as reported in our earlier studies. The experimental procedure was partially modified in the case of cyclodextrins (both HP-β-CD and SBE-β-CD) in the aqueous phase of the distribution system. Following the respective literature, in the present study, we prepared 1-octanol or n-hexane saturated with a buffer and a buffer saturated with 1-octanol and n-hexane. Three cyclodextrin concentrations (0.0115 M, 0.025 M and 0.035 M) in the aqueous phase were introduced. For the 1-octanol/buffer distribution, the examined solution of NTT•HCl was prepared in 1-octanol saturated with a buffer (C ~ 2 × 10^−3 M), whereas for the n-hexane/buffer system, it was prepared in a buffer saturated with n-hexane (C ~ 2 × 10^−3 M). Taking into account the obtained values of NTT•HCl solubility in the organic solvents and aqueous buffers, equal volumes of the 1-octanolic and buffer phases were prepared, whereas the n-hexane/buffer ratio was 12:2. Two pH values of the aqueous phases were examined: a pH of 4.0 and a pH of 6.8, simulating different segments of the gastro-intestinal tract. The respective volumes of the phases were placed into glass vials and equilibrated in an air thermostat for 3 days at 37 °C. Then, the phases were separated after at least 6 h of storage. The concentrations in both phases were measured using a UV–Vis spectrophotometer (Cary-50, USA Cary-50 Varian, Palo Alto, CA, USA, Software Version 3.00 (339)) with the help of the calibration curves. Each distribution test was carried out at least three times.
The distribution coefficients ( DappOrg/buf ) were determined, taking into account the compound concentrations in the organic ( C2Org ) and buffer ( C2buf ) phases and the volumes of the buffer ( Vbuf ) and organic ( VOrg ) phases:(1) DappOrg/buf=C2Org⋅V^buf/C2buf⋅V^Org

[4] = RC vs PP, no CD
Procedure: The permeability coefficients of NTT•HCl were determined in the absence and in the presence of cyclodextrins (HP-β-CD and SBE-β-CD) in the donor solution. A model artificial regenerated cellulose membrane MWCO 12–14 kDa (Standard Grade RC Dialysis Membrane, Flat Width 45 mm) (RC) or a biomimetic PermeaPad barrier (PHABIOC, Germany, www.permeapad.com (accessed on 1 February 2023)) (PP) were placed between the donor and receptor compartments of a vertical type Franz diffusion cell (PermeGear, Inc., Hellertown, PA, USA) with 7 mL/1 mL volumes for the donor and acceptor solutions. The cyclodextrin concentrations were 0.0115 M, 0.025 M and 0.035 M when the RC membrane was used and only 0.035 M in case of the PP barrier. Two different pH values (pH of 4.0 and pH of 6.8) were applied in the donor solution, whereas the receptor chamber was filled with a buffer with a pH of 7.4, modeling the compound’s diffusion to the blood plasma in all the experiments. […] Samples with a volume of 0.5 mL for the receptor solution were withdrawn every 30 min for 5 h and analyzed with a spectrophotometer (Spectramax 190; Molecular Devices Corporation, San Jose, CA, USA) in 96-well UV black plates (Costar, Washington, DC, USA) at a wavelength of 239 nm.
The permeability coefficient was calculated using the NTT•HCl concentration in the donor solution (C0), as follows:(7) Papp=J/C0

[5] = epidermis (ref 18) vs PermeaPad, no CD
[6] = human epidermis, buffer pH of 7.4; cited from earlier work
[7] = cited from earlier work
[8] = 37 °C
Procedure: The ∆logD parameter of Seiler was calculated for a single CD concentration in the aqueous phase, equal to 0.0115 M for both HP-β-CD and SBE-β-CD, as follows:(2) ΔlogD=logDappoct/buf−logDapphex/buf

**Q.** For `CN(C)CCC=C1c2ccccc2CCc2ccccc21.Cl` [AMT•HCl, amitryptiline hydrochloride], which “difference between the coefficients of permeability through the PP and RC” value [1] is on record?
**A.** The value was 4.0 fold.

**Q.** Which “KC, association constant of the NTT•HCl/cyclodextrin complex” value (from here on “KC … of the NTT•HCl/cyclodextrin complex”) ([2]; HP-β-CD, aqueous phase pH of 4.0, 37 °C) does the source give for `CNCCC=C1c2ccccc2CCc2ccccc21` [NTT•HCl, Nortriptyline hydrochloride] here?
**A.** The value was 1.13 ± 0.02 M⁻¹.

**Q.** And the “KC … of the NTT•HCl/cyclodextrin complex” value ([2]; HP-β-CD, aqueous phase pH of 6.8, 37 °C)?
**A.** Its value is 2.01 ± 0.05 M⁻¹.

**Q.** And the “KC … of the NTT•HCl/cyclodextrin complex” value ([2]; SBE-β-CD, aqueous phase pH of 4.0, 37 °C)?
**A.** The value was 1.14 ± 0.02 M⁻¹.

**Q.** What about the “KC … of the NTT•HCl/cyclodextrin complex” value ([2]; SBE-β-CD, aqueous phase pH of 6.8, 37 °C) of the same compound?
**A.** Its value is 2.24 ± 0.03 M⁻¹.

**Q.** What about the “distribution coefficient lower than that of AMT•HCl” value ([3]; 1-octanol/buffer pH of 4.0) of the same compound?
**A.** The value was 7 fold.

**Q.** And the “distribution coefficient lower than that of AMT•HCl” value ([3]; 1-octanol/buffer pH of 6.8)?
**A.** The value was 13 fold.

**Q.** What about the “distribution coefficient higher at buffer pH of 6.8 than at pH of 4.0” value ([3]; 1-octanol/buffer) of the same compound?
**A.** Its value is 1.33 fold.

**Q.** What about the “distribution coefficient higher at buffer pH of 6.8 than at pH of 4.0” value ([3]; n-hexane/buffer) of the same compound?
**A.** Its value is 1.61 fold.

**Q.** What about the Dapp hex/buf ([3]; pH 4.0, 0.0115 M HP-β-CD) of the same compound?
**A.** The Dapp hex/buf was “(4.6 ± 0.1) × 10^−3”.

**Q.** And the Dapp oct/buf ([3]; pH 4.0, 0.0115 M HP-β-CD)?
**A.** The Dapp oct/buf was 0.299 ± 0.008.

**Q.** And the logDapp hex/buf ([3]; pH 4.0, 0.0115 M HP-β-CD)?
**A.** Its logDapp hex/buf is −2.34.

**Q.** What about the logDapp oct/buf ([3]; pH 4.0, 0.0115 M HP-β-CD) of the same compound?
**A.** The logDapp oct/buf was −0.52.

**Q.** What about the Dapp hex/buf ([3]; pH 4.0, 0.0115 M SBE-β-CD) of the same compound?
**A.** The Dapp hex/buf was “(3.3 ± 0.1) × 10^−3”.

**Q.** What about the Dapp oct/buf ([3]; pH 4.0, 0.0115 M SBE-β-CD) of the same compound?
**A.** Its Dapp oct/buf is 0.204 ± 0.005.

**Q.** And the logDapp hex/buf ([3]; pH 4.0, 0.0115 M SBE-β-CD)?
**A.** The logDapp hex/buf was −2.48.

**Q.** What about the logDapp oct/buf ([3]; pH 4.0, 0.0115 M SBE-β-CD) of the same compound?
**A.** Its logDapp oct/buf is −0.69.

**Q.** And the Dapp oct/buf ([3]; pH 4.0, 0.025 M HP-β-CD)?
**A.** Its Dapp oct/buf is 0.154 ± 0.003.

**Q.** And the logDapp oct/buf ([3]; pH 4.0, 0.025 M HP-β-CD)?
**A.** The logDapp oct/buf was −0.81.

**Q.** And the Dapp oct/buf ([3]; pH 4.0, 0.025 M SBE-β-CD)?
**A.** The Dapp oct/buf was 0.086 ± 0.001.

**Q.** And the logDapp oct/buf ([3]; pH 4.0, 0.025 M SBE-β-CD)?
**A.** Its logDapp oct/buf is −1.07.

**Q.** What about the Dapp oct/buf ([3]; pH 4.0, 0.035 M HP-β-CD) of the same compound?
**A.** Its Dapp oct/buf is 0.101 ± 0.001.

**Q.** And the logDapp oct/buf ([3]; pH 4.0, 0.035 M HP-β-CD)?
**A.** The logDapp oct/buf was −1.0.

**Q.** And the Dapp oct/buf ([3]; pH 4.0, 0.035 M SBE-β-CD)?
**A.** Its Dapp oct/buf is 0.013 ± 0.000.

**Q.** And the logDapp oct/buf ([3]; pH 4.0, 0.035 M SBE-β-CD)?
**A.** The logDapp oct/buf was −1.89.

**Q.** And the Dapp hex/buf ([3]; pH 4.0, no CD)?
**A.** The Dapp hex/buf was “(5.6 ± 0.2) × 10^−3”.

**Q.** And the Dapp oct/buf ([3]; pH 4.0, no CD)?
**A.** The Dapp oct/buf was 4.159 ± 0.080.

**Q.** And the logDapp hex/buf ([3]; pH 4.0, no CD)?
**A.** The logDapp hex/buf was −2.23.

**Q.** What about the logDapp oct/buf ([3]; pH 4.0, no CD) of the same compound?
**A.** The logDapp oct/buf was 0.62.

**Q.** And the Dapp hex/buf ([3]; pH 6.8, 0.0115 M HP-β-CD)?
**A.** Its Dapp hex/buf is “(8.7 ± 0.1) × 10^−3”.

**Q.** And the Dapp oct/buf ([3]; pH 6.8, 0.0115 M HP-β-CD)?
**A.** Its Dapp oct/buf is 2.613 ± 0.022.

**Q.** What about the logDapp hex/buf ([3]; pH 6.8, 0.0115 M HP-β-CD) of the same compound?
**A.** The logDapp hex/buf was −2.06.

**Q.** What about the logDapp oct/buf ([3]; pH 6.8, 0.0115 M HP-β-CD) of the same compound?
**A.** The logDapp oct/buf was 0.42.

**Q.** And the Dapp hex/buf ([3]; pH 6.8, 0.0115 M SBE-β-CD)?
**A.** Its Dapp hex/buf is “(8.6 ± 0.3) × 10^−3”.

**Q.** And the Dapp oct/buf ([3]; pH 6.8, 0.0115 M SBE-β-CD)?
**A.** Its Dapp oct/buf is 1.443 ± 0.040.

**Q.** What about the logDapp hex/buf ([3]; pH 6.8, 0.0115 M SBE-β-CD) of the same compound?
**A.** The logDapp hex/buf was −2.07.

**Q.** And the logDapp oct/buf ([3]; pH 6.8, 0.0115 M SBE-β-CD)?
**A.** Its logDapp oct/buf is 0.16.

**Q.** What about the Dapp oct/buf ([3]; pH 6.8, 0.025 M HP-β-CD) of the same compound?
**A.** Its Dapp oct/buf is 1.993 ± 0.030.

**Q.** And the logDapp oct/buf ([3]; pH 6.8, 0.025 M HP-β-CD)?
**A.** Its logDapp oct/buf is 0.30.

**Q.** What about the Dapp oct/buf ([3]; pH 6.8, 0.025 M SBE-β-CD) of the same compound?
**A.** The Dapp oct/buf was 0.364 ± 0.011.

**Q.** And the logDapp oct/buf ([3]; pH 6.8, 0.025 M SBE-β-CD)?
**A.** The logDapp oct/buf was −0.44.

**Q.** And the Dapp oct/buf ([3]; pH 6.8, 0.035 M HP-β-CD)?
**A.** Its Dapp oct/buf is 1.395 ± 0.025.

**Q.** And the logDapp oct/buf ([3]; pH 6.8, 0.035 M HP-β-CD)?
**A.** The logDapp oct/buf was 0.15.

**Q.** What about the Dapp oct/buf ([3]; pH 6.8, 0.035 M SBE-β-CD) of the same compound?
**A.** Its Dapp oct/buf is 0.227 ± 0.006.

**Q.** What about the logDapp oct/buf ([3]; pH 6.8, 0.035 M SBE-β-CD) of the same compound?
**A.** Its logDapp oct/buf is −0.64.

**Q.** And the Dapp hex/buf ([3]; pH 6.8, no CD)?
**A.** Its Dapp hex/buf is “(9.5 ± 0.2) × 10^−3”.

**Q.** What about the Dapp oct/buf ([3]; pH 6.8, no CD) of the same compound?
**A.** The Dapp oct/buf was 5.537 ± 0.111.

**Q.** What about the logDapp hex/buf ([3]; pH 6.8, no CD) of the same compound?
**A.** The logDapp hex/buf was −2.02.

**Q.** And the logDapp oct/buf ([3]; pH 6.8, no CD)?
**A.** The logDapp oct/buf was 0.74.

**Q.** And the “difference between the coefficients of permeability through the PP and RC” value [4]?
**A.** Its value is 1.6 fold.

**Q.** And the “greater resistance of the epidermis than that of the PermeaPad barrier” value [5]?
**A.** Its value is 67 fold.

**Q.** And the “coefficient of permeability through epidermis” value [6]?
**A.** The value was 0.36 × 10^−6.

**Q.** And the pKa [7]?
**A.** Its pKa is 9.23.

**Q.** And the “∆logD” value ([8]; pH 4.0, 0.0115 M HP-β-CD)?
**A.** The value was 1.82.

**Q.** And the “∆logD” value ([8]; pH 4.0, 0.0115 M SBE-β-CD)?
**A.** The value was 1.79.

**Q.** What about the “∆logD” value ([8]; pH 4.0, no CD) of the same compound?
**A.** Its value is 2.85.

**Q.** And the “∆logD” value ([8]; pH 6.8, 0.0115 M HP-β-CD)?
**A.** The value was 2.48.

**Q.** And the “∆logD” value ([8]; pH 6.8, 0.0115 M SBE-β-CD)?
**A.** Its value is 2.23.

**Q.** What about the “∆logD” value ([8]; pH 6.8, no CD) of the same compound?
**A.** The value was 2.76.

From article PMC10386514, “Cyclodextrin’s Effect on Permeability and Partition of Nortriptyline Hydrochloride” (Pharmaceuticals, 2023)
